According to ChEMBL document CHEMBL5131531, “Small Molecule Inhibitors of TET Dioxygenases: Bobcat339 Activity Is Mediated by Contaminating Copper(II)” (ACS Med Chem Lett, 2022):
Active and inactive are the calls of the source.

Columns and labels:
[1] = molecular target: Methylcytosine dioxygenase TET1 (Homo sapiens) (UniProt Q8NFU7); test: Inhibition of recombinant human TET1 catalytic domain assessed as reduction of 5hmC formation at 125 uM using hemi-methylated synthetic oligomer 5'-AATTAGAA[5meC]GCTCCTT-3' as substrate incubated for 30 mins by LC-MS method
Chain of Methylcytosine dioxygenase TET1 (Homo sapiens) (Q8NFU7 whole entry, the tested form may be a part): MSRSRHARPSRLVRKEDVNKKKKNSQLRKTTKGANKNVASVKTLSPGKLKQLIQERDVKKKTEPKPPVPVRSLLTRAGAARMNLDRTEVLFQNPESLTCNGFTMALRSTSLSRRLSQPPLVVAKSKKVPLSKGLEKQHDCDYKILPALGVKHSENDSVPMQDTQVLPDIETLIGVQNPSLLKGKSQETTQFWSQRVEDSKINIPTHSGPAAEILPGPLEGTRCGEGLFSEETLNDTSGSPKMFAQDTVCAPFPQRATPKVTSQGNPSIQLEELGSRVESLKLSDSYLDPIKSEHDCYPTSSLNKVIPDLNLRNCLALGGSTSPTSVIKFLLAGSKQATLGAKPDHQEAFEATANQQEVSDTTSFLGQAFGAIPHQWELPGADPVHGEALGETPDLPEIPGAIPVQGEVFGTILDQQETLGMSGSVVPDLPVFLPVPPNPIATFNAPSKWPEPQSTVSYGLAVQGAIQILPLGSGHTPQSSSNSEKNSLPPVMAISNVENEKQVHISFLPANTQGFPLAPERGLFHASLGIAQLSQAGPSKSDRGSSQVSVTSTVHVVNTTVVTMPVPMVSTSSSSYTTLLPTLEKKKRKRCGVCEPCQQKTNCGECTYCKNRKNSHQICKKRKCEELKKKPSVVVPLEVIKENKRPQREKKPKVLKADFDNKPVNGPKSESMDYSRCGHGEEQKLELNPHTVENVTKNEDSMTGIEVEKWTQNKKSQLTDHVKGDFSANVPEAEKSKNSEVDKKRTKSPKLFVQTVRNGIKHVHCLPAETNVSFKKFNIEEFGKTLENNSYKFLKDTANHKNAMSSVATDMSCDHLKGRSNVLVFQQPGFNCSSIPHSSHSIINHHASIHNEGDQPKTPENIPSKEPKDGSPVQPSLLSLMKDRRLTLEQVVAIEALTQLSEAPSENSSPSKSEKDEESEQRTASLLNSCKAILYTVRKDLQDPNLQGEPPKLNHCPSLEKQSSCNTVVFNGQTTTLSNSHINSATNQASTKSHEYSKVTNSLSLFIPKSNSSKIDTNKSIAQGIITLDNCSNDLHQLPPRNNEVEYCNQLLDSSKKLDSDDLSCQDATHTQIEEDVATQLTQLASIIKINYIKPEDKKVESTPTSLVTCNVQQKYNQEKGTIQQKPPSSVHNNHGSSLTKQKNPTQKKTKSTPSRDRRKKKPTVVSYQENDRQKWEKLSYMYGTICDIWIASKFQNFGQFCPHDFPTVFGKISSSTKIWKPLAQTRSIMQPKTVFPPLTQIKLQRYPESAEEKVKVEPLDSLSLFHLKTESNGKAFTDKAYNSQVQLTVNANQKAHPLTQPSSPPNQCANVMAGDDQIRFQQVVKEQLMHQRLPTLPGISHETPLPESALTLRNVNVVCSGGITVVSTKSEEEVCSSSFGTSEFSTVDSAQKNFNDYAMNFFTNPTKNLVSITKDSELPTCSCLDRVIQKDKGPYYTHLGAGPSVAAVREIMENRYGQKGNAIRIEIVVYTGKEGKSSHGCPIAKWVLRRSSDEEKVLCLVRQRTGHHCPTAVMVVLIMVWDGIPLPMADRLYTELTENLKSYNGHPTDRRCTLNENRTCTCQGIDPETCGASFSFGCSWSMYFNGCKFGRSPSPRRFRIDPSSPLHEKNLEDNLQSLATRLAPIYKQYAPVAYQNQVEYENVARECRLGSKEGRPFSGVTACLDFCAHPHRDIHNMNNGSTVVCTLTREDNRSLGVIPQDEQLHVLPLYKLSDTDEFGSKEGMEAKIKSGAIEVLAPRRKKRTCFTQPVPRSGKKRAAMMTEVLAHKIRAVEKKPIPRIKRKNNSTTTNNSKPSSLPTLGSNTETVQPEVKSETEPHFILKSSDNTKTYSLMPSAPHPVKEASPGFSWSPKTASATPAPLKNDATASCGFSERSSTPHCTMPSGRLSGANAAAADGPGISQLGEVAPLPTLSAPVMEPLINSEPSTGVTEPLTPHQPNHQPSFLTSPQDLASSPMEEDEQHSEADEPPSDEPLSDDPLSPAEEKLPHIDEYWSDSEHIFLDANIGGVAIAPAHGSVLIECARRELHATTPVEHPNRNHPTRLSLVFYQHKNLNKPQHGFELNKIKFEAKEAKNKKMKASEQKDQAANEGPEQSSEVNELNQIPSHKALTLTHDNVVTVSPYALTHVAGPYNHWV

[2] = molecular target: Methylcytosine dioxygenase TET1 (Homo sapiens) (UniProt Q8NFU7); test: Inhibition of recombinant human TET1 assessed as reduction of 5hmC formation at 0.01 to 125 uM incubated for 30 mins in presence of 1 uM CuSO4 by HPLC-ESI-MS/MS method; conditions: dose 0.01-125 µM
[3] = molecular target: Methylcytosine dioxygenase TET1 (Homo sapiens) (UniProt Q8NFU7); test: Inhibition of recombinant human TET1 catalytic domain assessed as reduction of 5hmC formation at 25 uM incubated for 30 mins by HPLC-ESI-MS/MS method
[4] = molecular target: Methylcytosine dioxygenase TET1 (Homo sapiens) (UniProt Q8NFU7); test: Inhibition of recombinant human TET1 assessed as reduction of 5hmC formation at 0.01 to 125 uM incubated for 30 mins in presence of 4 uM CuSO4 by HPLC-ESI-MS/MS method; conditions: dose 0.01-125 µM
[5] = molecular target: Methylcytosine dioxygenase TET1 (Homo sapiens) (UniProt Q8NFU7); test: Inhibition of recombinant human TET1 catalytic domain assessed as reduction of 5hmC formation at 125 uM using hemi-methylated synthetic oligomer 5'-AATTAGAA[5meC]GCTCCTT-3' as substrate incubated for 30 mins in presence of CuSO4 by LC-MS method
[6] = molecular target: Methylcytosine dioxygenase TET2 (Homo sapiens) (UniProt Q6N021); test: Inhibition of recombinant human TET2 catalytic domain assessed as reduction of 5hmC formation at 125 uM using hemi-methylated synthetic oligomer 5'-AATTAGAA[5meC]GCTCCTT-3' as substrate incubated for 30 mins by LC-MS method

Measured: inhibition

Nc1nc(=O)n(-c2cccc(-c3ccccc3)c2)cc1Cl
not listed: [6]
active: all other assays above

CUPRIC SULFATE
active: [1] | [3] | [6]
